Assay: xn = mol fraction of the nth substance listed
Conditions: Liquid; for speed of sound: Pulse-echo method

CCCCCCCCCCCC [dodecane] + CCCCCCC
Conditions | mass density [kg/m3] | speed of sound [m/s]
303.17 K, 101 kPa, x2 = 0.2001 | – | 1238.5
308.11 K, 30390 kPa, x2 = 0.9391 | – | 1298.5
308.11 K, 30390 kPa, x2 = 0.97 | – | 1294.9
308.11 K, 45590 kPa, x2 = 0.9391 | – | 1376.1
308.11 K, 45590 kPa, x2 = 0.97 | – | 1373
308.11 K, 60790 kPa, x2 = 0.9391 | – | 1445.9
308.11 K, 60790 kPa, x2 = 0.97 | – | 1443.2
308.11 K, 75990 kPa, x2 = 0.9391 | – | 1509.5
308.11 K, 75990 kPa, x2 = 0.97 | – | 1507.2
308.11 K, 91180 kPa, x2 = 0.9391 | – | 1568
308.11 K, 101320 kPa, x2 = 0.4999 | – | 1649.5
308.11 K, 101320 kPa, x2 = 0.9391 | – | 1605.3
308.11 K, 101320 kPa, x2 = 0.97 | – | 1603.3
308.12 K, 101 kPa, x2 = 0 | – | 1240.2
308.12 K, 101 kPa, x2 = 0.6 | – | 1164.6
308.12 K, 101 kPa, x2 = 0.8995 | – | 1109.6
308.12 K, 15200 kPa, x2 = 0.9391 | – | 1209.5
308.12 K, 15200 kPa, x2 = 0.97 | – | 1205.4
308.12 K, 45590 kPa, x2 = 0.1014 | – | 1468.2
308.12 K, 45590 kPa, x2 = 0.4999 | – | 1432.7
308.12 K, 60790 kPa, x2 = 0.1014 | – | 1531
308.12 K, 75990 kPa, x2 = 0.1014 | – | 1589.4
308.12 K, 91180 kPa, x2 = 0.1014 | – | 1643.8
308.12 K, 91180 kPa, x2 = 0.4999 | – | 1614.6
308.12 K, 91180 kPa, x2 = 0.97 | – | 1565.8
308.12 K, 101320 kPa, x2 = 0.1014 | – | 1677.8
308.13 K, 101 kPa, x2 = 0.3002 | – | 1207.1
308.13 K, 101 kPa, x2 = 0.7002 | – | 1147.7
308.13 K, 101 kPa, x2 = 0.8 | – | 1129.6
308.13 K, 15200 kPa, x2 = 0.1014 | – | 1321.5
308.13 K, 15200 kPa, x2 = 0.4999 | – | 1278.8
308.13 K, 30390 kPa, x2 = 0.1014 | – | 1398.8
308.13 K, 30390 kPa, x2 = 0.3007 | – | 1379.7
308.13 K, 30390 kPa, x2 = 0.4999 | – | 1360.2
308.13 K, 30390 kPa, x2 = 0.5003 | – | 1360.2
308.13 K, 30390 kPa, x2 = 0.7007 | – | 1334.7
308.13 K, 45590 kPa, x2 = 0.3007 | – | 1450.6
308.13 K, 45590 kPa, x2 = 0.7007 | – | 1409.4
308.13 K, 60790 kPa, x2 = 0.4999 | – | 1498.1
308.13 K, 60790 kPa, x2 = 0.5003 | – | 1498.2
308.13 K, 60790 kPa, x2 = 0.7007 | – | 1476.6
308.13 K, 75990 kPa, x2 = 0 | – | 1596.8
308.13 K, 75990 kPa, x2 = 0.4999 | – | 1558.1
308.13 K, 75990 kPa, x2 = 0.5003 | – | 1558.2
308.13 K, 75990 kPa, x2 = 0.7007 | – | 1537.9
308.13 K, 91180 kPa, x2 = 0 | – | 1650.9
308.13 K, 91180 kPa, x2 = 0.3007 | – | 1629.5
308.13 K, 91180 kPa, x2 = 0.5003 | – | 1614.7
308.13 K, 91180 kPa, x2 = 0.7007 | – | 1595.3
308.13 K, 101320 kPa, x2 = 0.3007 | – | 1664.1
308.13 K, 101320 kPa, x2 = 0.5003 | – | 1649.8
308.13 K, 101320 kPa, x2 = 0.7007 | – | 1631.3
308.14 K, 101 kPa, x2 = 0.3996 | – | 1194.1
308.14 K, 15200 kPa, x2 = 0 | – | 1331
308.14 K, 15200 kPa, x2 = 0.3007 | – | 1300.4
308.14 K, 15200 kPa, x2 = 0.5003 | – | 1278.7
308.14 K, 15200 kPa, x2 = 0.7007 | – | 1250.1
308.14 K, 30390 kPa, x2 = 0 | – | 1407.6
308.14 K, 45590 kPa, x2 = 0 | – | 1476.3
308.14 K, 45590 kPa, x2 = 0.5003 | – | 1432.6
308.14 K, 60790 kPa, x2 = 0 | – | 1538.6
308.14 K, 60790 kPa, x2 = 0.3007 | – | 1515
308.14 K, 75990 kPa, x2 = 0.3007 | – | 1574.3
308.15 K, 101 kPa, x2 = 0 | 738.031 | –
308.15 K, 101 kPa, x2 = 0.0991 | 733.816 | –
308.15 K, 101 kPa, x2 = 0.1007 | – | 1230
308.15 K, 101 kPa, x2 = 0.2001 | – | 1219
308.15 K, 101 kPa, x2 = 0.2008 | 729.111 | –
308.15 K, 101 kPa, x2 = 0.2998 | 724.073 | –
308.15 K, 101 kPa, x2 = 0.3996 | 718.583 | –
308.15 K, 101 kPa, x2 = 0.5 | 712.522 | –
308.15 K, 101 kPa, x2 = 0.5002 | – | 1179.8
308.15 K, 101 kPa, x2 = 0.6 | 705.898 | –
308.15 K, 101 kPa, x2 = 0.7005 | 698.575 | –
308.15 K, 101 kPa, x2 = 0.7995 | 690.497 | –
308.15 K, 101 kPa, x2 = 0.8486 | 686.148 | –
308.15 K, 101 kPa, x2 = 0.8988 | 681.426 | –
308.15 K, 101 kPa, x2 = 0.9498 | 676.348 | –
308.15 K, 15200 kPa, x2 = 0.8496 | – | 1227.4
308.15 K, 30390 kPa, x2 = 0.8496 | – | 1314.4
308.15 K, 45590 kPa, x2 = 0.8496 | – | 1390.8
308.15 K, 60790 kPa, x2 = 0.8496 | – | 1459.7
308.15 K, 75990 kPa, x2 = 0.8496 | – | 1522.3
308.15 K, 91180 kPa, x2 = 0.8496 | – | 1580.4
308.15 K, 101320 kPa, x2 = 0.8496 | – | 1617.2
313.08 K, 15200 kPa, x2 = 0.9391 | – | 1191.3
313.08 K, 30390 kPa, x2 = 0.9391 | – | 1281.8
313.08 K, 45590 kPa, x2 = 0.9391 | – | 1360.6
313.08 K, 60790 kPa, x2 = 0.9391 | – | 1431.4
313.08 K, 75990 kPa, x2 = 0.9391 | – | 1495.6
313.08 K, 91180 kPa, x2 = 0.9391 | – | 1554.5
313.08 K, 101320 kPa, x2 = 0.4999 | – | 1636.7
313.08 K, 101320 kPa, x2 = 0.9391 | – | 1592.1
313.09 K, 30390 kPa, x2 = 0.97 | – | 1278.1
313.09 K, 45590 kPa, x2 = 0.97 | – | 1357.5
313.09 K, 60790 kPa, x2 = 0.4999 | – | 1483.8
313.09 K, 60790 kPa, x2 = 0.97 | – | 1428.5
313.09 K, 75990 kPa, x2 = 0.4999 | – | 1544.2
313.09 K, 75990 kPa, x2 = 0.97 | – | 1493.1
313.09 K, 91180 kPa, x2 = 0.4999 | – | 1601.2
313.09 K, 91180 kPa, x2 = 0.97 | – | 1552.3
313.09 K, 101320 kPa, x2 = 0.97 | – | 1589.9
313.1 K, 101 kPa, x2 = 0 | – | 1221
313.1 K, 101 kPa, x2 = 0.6 | – | 1144.4
313.1 K, 101 kPa, x2 = 0.8995 | – | 1088.5
313.1 K, 15200 kPa, x2 = 0.4999 | – | 1261.2
313.1 K, 15200 kPa, x2 = 0.97 | – | 1186.9
313.1 K, 30390 kPa, x2 = 0.4999 | – | 1344.1
313.1 K, 45590 kPa, x2 = 0.4999 | – | 1417.6
313.1 K, 60790 kPa, x2 = 0.7007 | – | 1462.1
313.1 K, 91180 kPa, x2 = 0.7007 | – | 1581.9
313.1 K, 101320 kPa, x2 = 0.1014 | – | 1665
313.11 K, 101 kPa, x2 = 0.3002 | – | 1187.6
313.11 K, 101 kPa, x2 = 0.3996 | – | 1174.4
313.11 K, 101 kPa, x2 = 0.7002 | – | 1127.3
313.11 K, 15200 kPa, x2 = 0.1014 | – | 1304
313.11 K, 15200 kPa, x2 = 0.3007 | – | 1282.9
313.11 K, 15200 kPa, x2 = 0.7007 | – | 1232.2
313.11 K, 30390 kPa, x2 = 0.1014 | – | 1382.7
313.11 K, 30390 kPa, x2 = 0.3007 | – | 1363.6
313.11 K, 30390 kPa, x2 = 0.5003 | – | 1344.2
313.11 K, 30390 kPa, x2 = 0.7007 | – | 1318.2
313.11 K, 45590 kPa, x2 = 0.1014 | – | 1453
313.11 K, 45590 kPa, x2 = 0.5003 | – | 1417.5
313.11 K, 45590 kPa, x2 = 0.7007 | – | 1393.8
313.11 K, 60790 kPa, x2 = 0.1014 | – | 1516.7
313.11 K, 60790 kPa, x2 = 0.5003 | – | 1483.9

Reference: the NIST ThermoML archive (doi:10.1016/j.jct.2008.05.014)
